{
  "source": "patent US12077503B2",
  "about": "“Substituted cyclic amides and their use as herbicides” (FMC CORPORATION, priority 2015, dated 2024)",
  "type_in_all_cases": "in vivo",
  "key": {"[1]": {"system": "rice (Oryra sativa)", "assay": "Test B flooded paddy test", "settings": "Oryza sativa, 250 g ai/ha, Flood; 0 to 100 scale where 0 is no effect and 100 is complete control; read-out: Rice plant response rating", "in_short": "(§1)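 Plants at 2-leaf stage flooded to 3 cm above soil, with compounds applied directly to paddy water and that depth maintained. Plants kept in greenhouse 13–15 d. Visual rating versus controls on a 0 (no effect) to 100 (complete control) scale.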"}, "[2]": {"system": "ducksalad (Heteranthera limosa)", "assay": "Test B flooded paddy test", "settings": "Heteranthera limosa, 250 g ai/ha, Flood; 0 to 100 scale where 0 is no effect and 100 is complete control; read-out: Ducksalad plant response rating", "in_short": "as §1"}, "[3]": {"system": "barnyardgrass (Echinochloa crus-galli)", "assay": "Test B flooded paddy test", "settings": "Echinochloa crus-galli, 250 g ai/ha, Flood; 0 to 100 scale where 0 is no effect and 100 is complete control; read-out: Barnyardgrass plant response rating", "in_short": "as §1"}, "[4]": {"system": "sedge, umbrella (small-flower umbrella sedge, Cyperus difformis)", "assay": "Test B flooded paddy test", "settings": "Cyperus difformis, 250 g ai/ha, Flood; 0 to 100 scale where 0 is no effect and 100 is complete control; read-out: Sedge, Umbrella plant response rating", "in_short": "as §1"}, "[5]": {"system": "ragweed (common ragweed, Ambrosia elatior)", "assay": "Test A preemergence", "settings": "Ambrosia artemisiifolia, pre-emergence, 240 h, 0 to 100 scale where 0 is no effect and 100 is complete control, read-out: Ragweed plant response rating", "in_short": "(§2)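 Seeds sprayed preemergence with a directed soil spray, or plants at 2 to 10 cm height and one- to two-leaf stage sprayed postemergence, with test chemicals in a non-phytotoxic solvent mixture containing surfactant, in loam soil–sand blend. Injury rated visually against untreated controls after about 10 d in greenhouse, 0 (no effect) to 100 (complete control).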"}, "[6]": {"system": "giant foxtail (Setaria faberii)", "assay": "Test A preemergence", "settings": "Setaria faberi, pre-emergence, 240 h, Preemergence", "in_short": "as §2"}, "[7]": {"system": "ryegrass, Italian (Italian ryegrass, Lolium multiflorum)", "assay": "Test A preemergence", "settings": "Lolium multiflorum, pre-emergence, 240 h, 0 to 100 scale where 0 is no effect and 100 is complete control, read-out: Ryegrass, Italian plant response rating", "in_short": "as §2"}, "[8]": {"system": "barnyardgrass (Echinochloa crus-galli)", "assay": "Test A preemergence", "settings": "Echinochloa crus-galli, pre-emergence, 240 h, Preemergence", "in_short": "as §2"}, "[9]": {"system": "pigweed (Amaranthus retroflexus)", "assay": "Test A preemergence", "settings": "Amaranthus retroflexus, pre-emergence, 240 h, 0 to 100 scale where 0 is no effect and 100 is complete control, read-out: Pigweed plant response rating"}, "[10]": {"system": "Kochia (Kochia scoparia)", "assay": "Test A preemergence", "settings": "Bassia scoparia, pre-emergence, 240 h, 0 to 100 scale where 0 is no effect and 100 is complete control, read-out: Kochia plant response rating", "in_short": "as §2"}, "[11]": {"system": "Galium (catchweed bedstraw, Galium aparine)", "assay": "Test A postemergence", "settings": "Galium, post-emergence, 240 h", "in_short": "as §2"}, "[12]": {"system": "ragweed (common ragweed, Ambrosia elatior)", "assay": "Test A postemergence", "settings": "Ambrosia artemisiifolia, post-emergence, 240 h", "in_short": "as §2"}, "[13]": {"system": "giant foxtail (Setaria faberii)", "assay": "Test A postemergence", "settings": "Setaria faberi, post-emergence, 240 h", "in_short": "as §2"}, "[14]": {"system": "blackgrass (Alopecurus myosuroides)", "assay": "Test A postemergence", "settings": "Alopecurus myosuroides, post-emergence, 240 h", "in_short": "as §2"}, "[15]": {"system": "ryegrass, Italian (Italian ryegrass, Lolium multiflorum)", "assay": "Test A postemergence", "settings": "Lolium multiflorum, post-emergence, 240 h", "in_short": "as §2"}, "[16]": {"system": "corn (Zea mays)", "assay": "Test A postemergence", "settings": "Zea mays, post-emergence, 240 h", "in_short": "as §2"}, "[17]": {"system": "wheat (Triticum aestivum)", "assay": "Test A postemergence", "settings": "Triticum aestivum, post-emergence, 240 h", "in_short": "as §2"}, "[18]": {"system": "barnyardgrass (Echinochloa crus-galli)", "assay": "Test A postemergence", "settings": "Echinochloa crus-galli, post-emergence, 240 h", "in_short": "as §2"}, "[19]": {"system": "pigweed (Amaranthus retroflexus)", "assay": "Test A postemergence", "settings": "Amaranthus retroflexus, post-emergence, 240 h", "in_short": "as §2"}, "[20]": {"system": "Kochia (Kochia scoparia)", "assay": "Test A postemergence", "settings": "Bassia scoparia, post-emergence, 240 h", "in_short": "as §2"}, "[21]": {"settings": "125 g ai/ha, preemergence, approx. 10 d"}},
  "data": [
    {"smiles": "COCc1ccccc1NC(=O)[C@H]1C(=O)N(C)C[C@@H]1c1cccc(C(F)(F)F)c1", "note": "(racemic) [Compound 1060]", "values": [
      {"measurement": "pest or weed control at 250 g/ha", "setting": "[1]", "value": 20, "unit": "%"},
      {"measurement": "pest or weed control at 250 g/ha", "setting": "[2]", "value": 90, "unit": "%"},
      {"measurement": "pest or weed control at 250 g/ha", "setting": "[3]", "value": 75, "unit": "%"},
      {"measurement": "pest or weed control at 250 g/ha", "setting": "[4]", "value": 0, "unit": "%"},
      {"measurement": "pest or weed control at 31 g/ha", "setting": "[5]; 31 g ai/ha, Preemergence", "value": 0, "unit": "%"},
      {"measurement": "pest or weed control at 125 g/ha", "setting": "[5]; [21]", "value": 30, "unit": "%"},
      {"measurement": "pest or weed control at 125 g/ha", "setting": "[6]; 125 g ai/ha, visual injury rating after approximately 10 d, read-out: Foxtail, Giant plant response rating (0 to 100 scale, 0 is no effect, 100 is complete control)", "value": 100, "unit": "%"},
      {"measurement": "pest or weed control at 31 g/ha", "setting": "[6]; 31 g ai/ha, 0 to 100 scale (0 no effect, 100 complete control), read-out: Plant response rating, Foxtail, Giant", "value": 90, "unit": "%"},
      {"measurement": "pest or weed control at 31 g/ha", "setting": "[7]; 31 g ai/ha, Preemergence", "value": 50, "unit": "%"},
      {"measurement": "pest or weed control at 125 g/ha", "setting": "[7]; [21]", "value": 60, "unit": "%"},
      {"measurement": "pest or weed control at 125 g/ha", "setting": "[8]; 125 g ai/ha, visual injury rating after approximately 10 d, read-out: Barnyardgrass plant response rating (0 to 100 scale, 0 is no effect, 100 is complete control)", "value": 100, "unit": "%"},
      {"measurement": "pest or weed control at 31 g/ha", "setting": "[8]; 31 g ai/ha, 0 to 100 scale (0 no effect, 100 complete control), read-out: Plant response rating, Barnyardgrass", "value": 90, "unit": "%"},
      {"measurement": "pest or weed control at 31 g/ha", "setting": "[9]; 31 g ai/ha, Preemergence", "value": 0, "unit": "%"},
      {"measurement": "pest or weed control at 125 g/ha", "setting": "[9]; [21]", "value": 30, "unit": "%"},
      {"measurement": "pest or weed control at 31 g/ha", "setting": "[10]; 31 g ai/ha, Preemergence", "value": 0, "unit": "%"},
      {"measurement": "pest or weed control at 125 g/ha", "setting": "[10]; [21]", "value": 0, "unit": "%"},
      {"measurement": "pest or weed control at 125 g/ha", "setting": "[11]; 125 g ai/ha, postemergence, visual injury on 0 to 100 scale (0 no effect, 100 complete control), approx. 10 d, read-out: Galium plant response rating", "value": 40, "unit": "%"},
      {"measurement": "pest or weed control at 31 g/ha", "setting": "[11]; Postemergence, 31 g ai/ha, visual injury after approx. 10 d, 0 to 100 scale, 0 no effect, 100 complete control, read-out: Plant response rating, Galium", "value": 0, "unit": "%"},
      {"measurement": "pest or weed control at 125 g/ha", "setting": "[12]; 125 g ai/ha, postemergence, visual injury on 0 to 100 scale (0 no effect, 100 complete control), approx. 10 d, read-out: Ragweed plant response rating", "value": 30, "unit": "%"},
      {"measurement": "pest or weed control at 31 g/ha", "setting": "[12]; Postemergence, 31 g ai/ha, visual injury after approx. 10 d, 0 to 100 scale, 0 no effect, 100 complete control, read-out: Plant response rating, Ragweed", "value": 0, "unit": "%"},
      {"measurement": "pest or weed control at 125 g/ha", "setting": "[13]; 125 g ai/ha, postemergence, visual injury on 0 to 100 scale (0 no effect, 100 complete control), approx. 10 d, read-out: Foxtail, Giant plant response rating", "value": 90, "unit": "%"},
      {"measurement": "pest or weed control at 31 g/ha", "setting": "[13]; Postemergence, 31 g ai/ha, visual injury after approx. 10 d, 0 to 100 scale, 0 no effect, 100 complete control, read-out: Plant response rating, Foxtail, Giant", "value": 90, "unit": "%"},
      {"measurement": "pest or weed control at 125 g/ha", "setting": "[14]; 125 g ai/ha, postemergence, visual injury on 0 to 100 scale (0 no effect, 100 complete control), approx. 10 d, read-out: Blackgrass plant response rating", "value": 60, "unit": "%"},
      {"measurement": "pest or weed control at 31 g/ha", "setting": "[14]; Postemergence, 31 g ai/ha, visual injury after approx. 10 d, 0 to 100 scale, 0 no effect, 100 complete control, read-out: Plant response rating, Blackgrass", "value": 50, "unit": "%"},
      {"measurement": "pest or weed control at 125 g/ha", "setting": "[15]; 125 g ai/ha, postemergence, visual injury on 0 to 100 scale (0 no effect, 100 complete control), approx. 10 d, read-out: Ryegrass, Italian plant response rating", "value": 50, "unit": "%"},
      {"measurement": "pest or weed control at 31 g/ha", "setting": "[15]; Postemergence, 31 g ai/ha, visual injury after approx. 10 d, 0 to 100 scale, 0 no effect, 100 complete control, read-out: Plant response rating, Ryegrass, Italian", "value": 50, "unit": "%"},
      {"measurement": "plant injury at 125 g/ha", "setting": "[16]; 125 g ai/ha, postemergence, visual injury on 0 to 100 scale (0 no effect, 100 complete control), approx. 10 d, read-out: Corn plant response rating", "value": 90, "unit": "%"},
      {"measurement": "Corn plant response rating (crop injury, 0 = no effect, 100 = complete kill) at 31 g/ha", "setting": "[16]; Postemergence, 31 g ai/ha, visual injury after approx. 10 d, 0 to 100 scale, 0 no effect, 100 complete control", "value": 70, "unit": "%"},
      {"measurement": "plant injury at 125 g/ha", "setting": "[17]; 125 g ai/ha, postemergence, visual injury on 0 to 100 scale (0 no effect, 100 complete control), approx. 10 d, read-out: Wheat plant response rating", "value": 70, "unit": "%"},
      {"measurement": "plant injury at 31 g/ha", "setting": "[17]; Postemergence, 31 g ai/ha, visual injury after approx. 10 d, 0 to 100 scale, 0 no effect, 100 complete control, read-out: Plant response rating, Wheat", "value": 30, "unit": "%"},
      {"measurement": "pest or weed control at 125 g/ha", "setting": "[18]; 125 g ai/ha, postemergence, visual injury on 0 to 100 scale (0 no effect, 100 complete control), approx. 10 d, read-out: Barnyardgrass plant response rating", "value": 100, "unit": "%"},
      {"measurement": "pest or weed control at 31 g/ha", "setting": "[18]; Postemergence, 31 g ai/ha, visual injury after approx. 10 d, 0 to 100 scale, 0 no effect, 100 complete control, read-out: Plant response rating, Barnyardgrass", "value": 90, "unit": "%"},
      {"measurement": "pest or weed control at 125 g/ha", "setting": "[19]; 125 g ai/ha, postemergence, visual injury on 0 to 100 scale (0 no effect, 100 complete control), approx. 10 d, read-out: Pigweed plant response rating", "value": 0, "unit": "%"},
      {"measurement": "pest or weed control at 31 g/ha", "setting": "[19]; Postemergence, 31 g ai/ha, visual injury after approx. 10 d, 0 to 100 scale, 0 no effect, 100 complete control, read-out: Plant response rating, Pigweed", "value": 0, "unit": "%"},
      {"measurement": "pest or weed control at 125 g/ha", "setting": "[20]; 125 g ai/ha, postemergence, visual injury on 0 to 100 scale (0 no effect, 100 complete control), approx. 10 d, read-out: Kochia plant response rating", "value": 0, "unit": "%"},
      {"measurement": "pest or weed control at 31 g/ha", "setting": "[20]; Postemergence, 31 g ai/ha, visual injury after approx. 10 d, 0 to 100 scale, 0 no effect, 100 complete control, read-out: Plant response rating, Kochia", "value": 0, "unit": "%"}
    ]}
  ]
}
